In patent US4415558A, “CRF And analogs” (The Salk Institute for Biological Studies, priority 1982, dated 1983):
pEC50: −log10 of the molar value. “Also recorded” adds a separate entry of the source. [ ]: non-standard residue; d: D form. Nle = CCCC[C@H](N)C(=O)O

Tests used:
[1] = test system: secretion of ACTH and β-endorphin; conditions: cited from earlier work
[2] = cited from earlier work
[3] = test system: cultured rat pituitary cells; assay: Secretion of ACTH and β-endorphin by cultured rat pituitary cells; type: cell-based; conditions: for Stimulation of secretion of ACTH and β-END-LI (in words): general procedure set forth in Example III, in vitro or in vivo not specified
Procedure: (§1) The synthetic and the natural CRF were examined for their effects on the secretion of ACTH and β-endorphin in vitro and the synthetic CRF was also examined in vivo. The high potency of synthetic and natural CRF to stimulate the secretion of ACTH and β-endorphin by cultured rat pituitary cells was measured. […] The secretory response to maximal (>5 nM) concentrations of CRF is at a plateau level. In vivo doses from 30 ng to 3 μg/Kg of body weight rapidly elevated ACTH and β-endorphin-like (β-END-LI) secretions 5-20 fold.

[4] = Blood pressure in rats (mean carotid blood pressure, urethane-anesthetized rat); type: in vivo; conditions: for Lowering of blood pressure (in words): general procedure set forth in Example III; for Effect upon blood pressure (in words): rats
Procedure: (§2) Plasma levels of ACTH and β-END-LI are elevated for at least 5-20 minutes following the intravenous administration of CRF to nembutal-anesthesized male rats and to quiescent male or female rats with indwelling intravenous cannulae. […] Mean cartoid blood pressure in a urethane-anesthesized rat fell from 87 to 72±2 mm Hg and remained at that level for 30 minutes following an injection equal to 3 μg CRF/Kg body weight; the subsequent administration of an injection equal to 30 μg CRF/Kg body weight lowered mean blood pressure to 42±3 mm Hg for more than 2 hours.

[5] = test system: ACTH and β-END-LI secretion; assay: ACTH and β-END-LI secretion in vivo in rat preparations
Procedure: as §1, §2

Blood pressure in dogs = type: in vivo
[6] = urethane-anesthetized rat, subsequent 30 μg CRF/Kg body weight

In the case of `CC[C@H](C)[C@H](NC(=O)[C@@H](NC(=O)[C@H](CC(=O)O)NC(=O)[C@H](CC(C)C)NC(=O)[C@H](CC(C)C)NC(=O)[C@H](CC(C)C)NC(=O)[C@H](CCCNC(=N)N)NC(=O)[C@H](CC(N)=O)NC(=O)[C@H](CC(N)=O)NC(=O)[C@H](C)NC(=O)[C@H](C)NC(=O)[C@H](CCC(N)=O)NC(=O)[C@H](CCC(N)=O)NC(=O)[C@H](CCCCN)NC(=O)[C@H](CCC(=O)O)NC(=O)[C@H](CCCCN)NC(=O)[C@H](CCC(=O)O)NC(=O)[C@H](CCC(N)=O)NC(=O)[C@H](CCCCN)NC(=O)[C@H](CCC(=O)O)NC(=O)[C@@H](NC(=O)[C@H](CCC(=O)O)NC(=O)[C@@H](NC(=O)[C@H](CCSC)NC(=O)[C@H](CCCCN)NC(=O)[C@H](CCCNC(=N)N)NC(=O)[C@H](CC(C)C)NC(=O)[C@H](CC(C)C)NC(=O)[C@H](CCC(=O)O)NC(=O)[C@H](CC(C)C)NC(=O)[C@H](CO)NC(=O)[C@H](CC(C)C)NC(=O)[C@H](CC(=O)O)NC(=O)[C@@H](NC(=O)[C@H](CO)NC(=O)[C@@H](NC(=O)[C@@H]1CCCN1C(=O)[C@@H]1CCCN1C(=O)CNC(=O)[C@@H]1CCC(=O)N1)[C@@H](C)CC)[C@@H](C)CC)[C@@H](C)CC)[C@@H](C)CC)[C@@H](C)O)C(N)=O` [Sauvagine], the “Stimulating the secretion of ACTH and β-endorphin (reported)” value [1] is listed as “stimulating the secretion of ACTH and β-endorphin” and the “Lowering blood pressure in mammals (reported)” value [2] is listed as “lowering blood pressure in mammals”.
For `CC[C@H](C)[C@H](NC(=O)[C@H](CC(=O)O)NC(=O)[C@H](CC(C)C)NC(=O)[C@H](CC(C)C)NC(=O)[C@H](CCCCN)NC(=O)[C@H](CCCNC(=N)N)NC(=O)[C@H](CC(N)=O)NC(=O)[C@H](CO)NC(=O)[C@H](Cc1c[nH]cn1)NC(=O)[C@H](C)NC(=O)[C@H](CCC(N)=O)NC(=O)[C@H](CCC(N)=O)NC(=O)[C@H](C)NC(=O)[C@H](CC(C)C)NC(=O)[C@H](CCC(N)=O)NC(=O)[C@H](CC(=O)O)NC(=O)[C@H](C)NC(=O)[C@H](CCCCN)NC(=O)[C@@H](NC(=O)[C@H](CCSC)NC(=O)[C@H](CCC(=O)O)NC(=O)[C@H](CC(C)C)NC(=O)[C@@H](NC(=O)[C@H](CCC(=O)O)NC(=O)[C@H](CCCNC(=N)N)NC(=O)[C@H](CC(C)C)NC(=O)[C@H](CC(C)C)NC(=O)[C@H](Cc1c[nH]cn1)NC(=O)[C@H](Cc1ccccc1)NC(=O)[C@@H](NC(=O)[C@H](CC(C)C)NC(=O)[C@H](CC(=O)O)NC(=O)[C@H](CC(C)C)NC(=O)[C@H](CO)NC(=O)[C@@H](NC(=O)[C@@H]1CCCN1C(=O)[C@@H]1CCCN1)[C@@H](C)CC)[C@@H](C)O)C(C)C)[C@@H](C)O)C(=O)N[C@@H](C)C(N)=O` [[des Ser^1 -Gln^2 -Glu^3]-CRF], the “Stimulation of secretion of ACTH and β-END-LI (in words)” value (shortened to “Stimulation of secretion … (in words)”) [3] was “stimulates the secretion of ACTH and β-END-LI” and the “Lowering of blood pressure (in words)” value [4] was “very significant lowering of blood pressure”.
For `CC[C@H](C)[C@H](NC(=O)[C@@H](NC(=O)[C@H](CC(=O)O)NC(=O)[C@H](CC(C)C)NC(=O)[C@H](CC(C)C)NC(=O)[C@H](CC(C)C)NC(=O)[C@H](CCCNC(=N)N)NC(=O)[C@H](CC(N)=O)NC(=O)[C@H](CC(N)=O)NC(=O)[C@H](C)NC(=O)[C@H](C)NC(=O)[C@H](CCC(N)=O)NC(=O)[C@H](CCC(N)=O)NC(=O)[C@H](CCCCN)NC(=O)[C@H](CCC(=O)O)NC(=O)[C@H](CCCCN)NC(=O)[C@H](CCC(=O)O)NC(=O)[C@H](CCC(N)=O)NC(=O)[C@H](CCCCN)NC(=O)[C@H](CCC(=O)O)NC(=O)[C@@H](NC(=O)[C@H](CCC(=O)O)NC(=O)[C@@H](NC(=O)[C@H](CCSC)NC(=O)[C@H](CCCCN)NC(=O)[C@H](CCCNC(=N)N)NC(=O)[C@H](CC(C)C)NC(=O)[C@H](CC(C)C)NC(=O)[C@H](CCC(=O)O)NC(=O)[C@H](CC(C)C)NC(=O)[C@H](CO)NC(=O)[C@H](CC(C)C)NC(=O)[C@H](CC(=O)O)NC(=O)[C@@H](NC(=O)[C@H](CO)NC(=O)[C@@H](NC(=O)[C@@H]1CCCN1C(=O)[C@@H]1CCCN1)[C@@H](C)CC)[C@@H](C)CC)[C@@H](C)CC)[C@@H](C)CC)[C@@H](C)O)C(N)=O` [[des pGlu^1 -Gly^2]-sauvagine], the “Stimulation of secretion … (in words)” value [3] was “stimulates the secretion of ACTH and β-END-LI” and the “Lowering of blood pressure (in words)” value [4] was “very significant lowering of blood pressure”.
For `CC[C@H](C)[C@H](NC(=O)[C@H](CC(=O)O)NC(=O)[C@H](CC(C)C)NC(=O)[C@H](CC(C)C)NC(=O)[C@H](CCCCN)NC(=O)[C@H](CCCNC(=N)N)NC(=O)[C@H](CC(N)=O)NC(=O)[C@H](CO)NC(=O)[C@H](Cc1c[nH]cn1)NC(=O)[C@H](C)NC(=O)[C@H](CCC(N)=O)NC(=O)[C@H](CCC(N)=O)NC(=O)[C@H](C)NC(=O)[C@H](CC(C)C)NC(=O)[C@H](CCC(N)=O)NC(=O)[C@H](CC(=O)O)NC(=O)[C@H](C)NC(=O)[C@H](CCCCN)NC(=O)[C@@H](NC(=O)[C@H](CCSC)NC(=O)[C@H](CCC(=O)O)NC(=O)[C@H](CC(C)C)NC(=O)[C@@H](NC(=O)[C@H](CCC(=O)O)NC(=O)[C@H](CCCNC(=N)N)NC(=O)[C@H](CC(C)C)NC(=O)[C@H](CC(C)C)NC(=O)[C@H](Cc1c[nH]cn1)NC(=O)[C@H](Cc1ccccc1)NC(=O)[C@@H](NC(=O)[C@H](CC(C)C)NC(=O)[C@H](CC(=O)O)NC(=O)[C@H](CC(C)C)NC(=O)[C@H](CO)NC(=O)[C@@H](NC(=O)[C@@H]1CCCN1C(=O)[C@@H]1CCCN1C(=O)[C@H](CCC(=O)O)NC(=O)[C@H](CCC(N)=O)NC(=O)[C@@H](N)CO)[C@@H](C)CC)[C@@H](C)O)C(C)C)[C@@H](C)O)C(=O)N[C@@H](C)C(N)=O` [natural CRF], the “Stimulation of ACTH and β-endorphin secretion in vitro (in words)” value (“Stimulation … in vitro (in words)” for short) [3] was “high potency”, the “Stimulation … in vitro (in words)” value ([3]; listed as isolated CRF) was “stimulate ACTH and β-endorphin activies” and the “Stimulation of ACTH and β-END-LI secretion in vivo (in words)” value (from here on “Stimulation … in vivo (in words)”) [5] was “stimulate ACTH and β-endorphin activies”.
With “H-SQEPPISIDLSFHLLREVLEMTKADQLAQQAHNNRKLLDIA-NH2 [[Ile^8, Ser^11, Asn^33]-CRF]” the “Stimulation of secretion … (in words)” value [3] was “stimulates the secretion of ACTH and β-END-LI” and the “Lowering of blood pressure (in words)” value [4] was “very significant lowering of blood pressure”.
With “H-SQEPPISLDLTFHLLREVIEMTKAEQLAQQAHSNRKLLDIA-NH2 [[Ile^19, Glu^25]-CRF]” the “Stimulation of secretion … (in words)” value [3] was “stimulates the secretion of ACTH and β-END-LI” and the “Lowering of blood pressure (in words)” value [4] was “very significant lowering of blood pressure”.
For “H-SQEPPISLDLTFHLLREVLEATKADQLAQQAHTNRKLLDI[Nle]-NH2 [[Ala^21, Thr^33, Nle^41]-CRF]”, the “Stimulation of secretion … (in words)” value [3] was “stimulates the secretion of ACTH and β-END-LI” and the “Lowering of blood pressure (in words)” value [4] was “very significant lowering of blood pressure”.
For “H-SQEPPISLDLTFHLLREVLE[Nle]TKADQLAQQAYSNRKLLDIA-NH2 [[Nle^21, Tyr^32]-CRF]”, the “Stimulation of secretion … (in words)” value [3] was “stimulates the secretion of ACTH and β-END-LI” and the “Lowering of blood pressure (in words)” value [4] was “very significant lowering of blood pressure to a greater extent than CRF”.
With “H-SQEPPISLDLTFYLLREVLE[Nle]TKADQLAQQAHSNRKLLDIA-NH2 [[Tyr^13, Nle^21]-CRF]” the “Stimulation of secretion … (in words)” value [3] was “stimulates the secretion of ACTH and β-END-LI” and the “Lowering of blood pressure (in words)” value [4] was “very significant lowering of blood pressure to a greater extent than CRF”.
For “H-Ser-Gln-Glu-Pro-Pro-Ile-Ser-Leu-Asp-Leu-Thr-Phe-His-Leu-Leu-Arg-Glu-Val- Leu-Glu-Met-Thr-Lys-Ala-Asp-Gln-Leu-Ala-Gln-Gln-Ala-His-Ser-Asn-Arg-Lys-Leu-Leu-Asp-Ile-Ala-NH2 [synthetic CRF]”, the “Effect upon blood pressure (in words)” value (Blood pressure in dogs) was “dramatic effect upon blood pressure”, the “Maximal concentrations (secretory response at a plateau level)” value ([3]; cultured rat pituitary cells) was over 5 nM and the pEC50 ([3]; cultured rat pituitary cells, concentration giving half-maximal response) was about 10.00. For the same molecule, the “Minimal response, secretion of ACTH and β-endorphin” value ([3]; cultured rat pituitary cells, concentration giving minimal response) was “about 10 picomolar”, the “Stimulation … in vitro (in words)” value [3] was “stimulate ACTH and β-endorphin activies; also recorded: high potency” and the “Effect upon blood pressure (in words)” value ([4]; listed as CRF) was “dramatic effect upon blood pressure”. The “Effect upon blood pressure (in words)” value ([4]; listed as Synthetic CRF) was “substantially lower blood pressure for an extended time period”, the “Time blood pressure remained at lowered level” value ([4]; urethane-anesthetized rat, 3 μg CRF/Kg body weight) was 30 min and the “Mean carotid blood pressure after injection” value ([4]; urethane-anesthetized rat, 3 μg CRF/Kg body weight, fell from 87) was 72±2 mm Hg. For the same molecule, the “Duration of lowered mean blood pressure” value [4, 6] was “more than 2 hours”, the “Mean blood pressure after subsequent injection” value [4, 6] was 42±3 mm Hg and the “Stimulation … in vivo (in words)” value [5] was “stimulate ACTH and β-endorphin activies”. The “Elevation of ACTH and β-endorphin-like (β-END-LI) secretions” value ([5]; in vivo doses from 30 ng to 3 μg/Kg of body weight) was 5-20 fold, the “Stimulation … in vivo (in words)” value ([5]; listed as Synthetic CRF) was “powerful stimulator of ACTH and β-END-LI secretion” and the “Time for which plasma levels of ACTH and β-END-LI are elevated” value ([5]; intravenous administration, nembutal-anesthetized male rats and quiescent male or female rats with indwelling intravenous cannulae) was 5 to 20 min.
